*1 amine or outer side, *2 acyl side, *3 side chain or, on linkers, in order; H or OH if unused. Where a SMILES comes first, the peptide text is derived from it. Side-chain parts run from the residue outwards. [ ]: non-standard residue; d: D form. The star is where a group is joined. C20 diacid = O=C(O)CCCCCCCCCCCCCCCCCCC(=O)*; C18 diacid = O=C(O)CCCCCCCCCCCCCCCCC(=O)*; C16 diacid = O=C(O)CCCCCCCCCCCCCCC(=O)*; γGlu = O=C(O)[C@H](CCC(=O)[*:2])N[*:1]; NMeI = CC[C@H](C)[C@H](NC)C(=O)O; Pentanoyl = CCCCC(=O)*; Aib = CC(C)(N)C(=O)O
Legend:
[1] = system: Sprague Dawley rats; experiment: Effect on systolic blood pressure, telemetry in Sprague Dawley rats; format: in vivo, rat; conditions: 0.1 mg/kg SC; for Systolic blood pressure (Mean) % change from baseline, 8 h / Systolic blood pressure (Mean) % change from baseline, 12 h / Systolic blood pressure (Mean) % change from baseline, 24 h: n=2; for Duration of action: last time point with an effect on BP still observed
Procedure: The effect of the compounds on systolic blood pressure was determined in telemetry studies in Sprague Dawley rats at a dosage of 0.1 mg/kg SC.
The rats were previously implanted with a telemetry device (DSI, Saint-Paul, USA, HD-S10, HD-S11 or HD S21) and allowed to recover for a minimum period of 2 weeks before treatment with vehicle or the different peptides. Blood pressure (BP) was recorded through a catheter inserted into the abdominal aorta. The device body was placed in the abdomen. The animals were allowed to recover from surgery for at least 10 days before the first administration of test drug or vehicle.
The chronically instrumented rats of the telemetry studies were individually housed immediately after surgery and then housed in pairs with a non-instrumented companion after recovery.
Systolic blood pressure was recorded for one hour before treatment (basal period). Thereafter, the subcutaneous administration of the test compound or its vehicle was performed, under continuous recording of the signal up to 48 hours, analysed and expressed as % change from baseline.
Representative data are presented in Table 13 below, in which “Duration of action” indicates the last time point for which an effect on BP was still observed (n=2 animals/peptide)

[2] = biological target: T1, CFR1R receptor (Homo sapiens, UniProt P34998); experiment: Activity at anti-target CFR1R receptor, cAMP assay in CRF1R-overexpression CHO-K1 cells; format: cell-based; conditions: 100% = Sauvagine at 100 nM; for EC50: cAMP
T1 construct: host or cells: CHO-K1 (clone 2)
T1 sequence (P34998 24-415): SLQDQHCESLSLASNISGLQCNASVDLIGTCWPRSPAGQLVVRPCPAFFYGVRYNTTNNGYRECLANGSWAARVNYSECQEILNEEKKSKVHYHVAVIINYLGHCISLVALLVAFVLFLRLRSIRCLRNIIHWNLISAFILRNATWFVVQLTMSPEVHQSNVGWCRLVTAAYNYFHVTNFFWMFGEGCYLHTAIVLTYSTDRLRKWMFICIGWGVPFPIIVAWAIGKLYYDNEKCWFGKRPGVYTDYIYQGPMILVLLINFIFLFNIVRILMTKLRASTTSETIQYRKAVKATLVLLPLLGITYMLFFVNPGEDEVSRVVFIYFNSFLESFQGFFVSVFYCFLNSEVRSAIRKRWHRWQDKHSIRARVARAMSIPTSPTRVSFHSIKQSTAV
Method in brief: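 Run as for the TeloHAEC line, except the full-activation control well received Sauvagine (100 nM) and final density was 4000 cells/well. Cells from clone 2 came from frozen aliquots of near-confluent cultures.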

[3] = biological target: T2, human CRF2a receptor (Homo sapiens, UniProt Q13324); experiment: Activity at human CRF2a receptor, cAMP functional assay in TeloHEAC cells; format: cell-based; conditions: TeloHEAC cells stably expressing human CRF2a receptor, relative to urocortin 2 (100 nM = 100%)
T2 construct: expressed in transfected cells; host or cells: TeloHEAC cells
T2 sequence (Q13324 1-411): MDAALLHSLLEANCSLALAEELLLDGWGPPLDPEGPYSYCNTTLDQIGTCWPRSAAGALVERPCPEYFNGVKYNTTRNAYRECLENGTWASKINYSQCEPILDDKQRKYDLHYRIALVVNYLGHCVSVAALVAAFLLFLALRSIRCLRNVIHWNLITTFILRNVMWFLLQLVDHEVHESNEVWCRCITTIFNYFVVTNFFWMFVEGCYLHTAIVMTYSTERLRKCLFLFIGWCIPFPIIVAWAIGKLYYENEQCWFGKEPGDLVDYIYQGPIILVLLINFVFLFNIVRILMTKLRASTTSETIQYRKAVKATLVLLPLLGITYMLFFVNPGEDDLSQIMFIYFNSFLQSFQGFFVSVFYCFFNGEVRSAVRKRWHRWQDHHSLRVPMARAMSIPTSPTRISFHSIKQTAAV
Method in brief: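 TeloHEAC cells stably expressing human CRF2a (10000 cells/well, suspended in HBSS/20 mM HEPES with 2 mM IBMX) were exposed to compounds for 30 min at 37 °C. cAMP was read as the 665/620 nm fluorescence ratio after 1 h at room temperature. EC50 was derived relative to 100 nM urocortin 2, set as 100%.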

CC[C@H](C)[C@H](NC(C)=O)C(=O)N[C@H](C(=O)N[C@@H](CC(C)C)C(=O)N[C@@H](CO)C(=O)N[C@@H](CC(C)C)C(=O)N[C@@H](CC(=O)O)C(=O)N[C@@H](C(=O)N1CCC[C@H]1C(=O)N[C@H](C(=O)N[C@@H](CCCCN)C(=O)N[C@@H](CC(C)C)C(=O)N[C@@H](CCCCNC(=O)CC[C@H](NC(=O)CCCCCCCCCCCCCCC(=O)O)C(=O)O)C(=O)N[C@@H](CCCCN)C(=O)N[C@H](C(=O)N[C@@H](CC(C)C)C(=O)N[C@@H](CC(C)C)C(=O)N[C@@H](CCC(=O)O)C(=O)N[C@@H](CCC(N)=O)C(=O)N[C@@H](CCC(=O)O)C(=O)N[C@@H](CCCCN)C(=O)N[C@@H](CCC(N)=O)C(=O)N[C@@H](CCCCN)C(=O)N[C@@H](CCCCN)C(=O)N[C@@H](CCC(N)=O)C(=O)N[C@@H](CCCNC(=N)N)C(=O)N[C@@H](CCC(=O)O)C(=O)N[C@@H](CCC(N)=O)C(=O)N[C@@H](C)C(=O)N[C@@H](CCC(=O)O)C(=O)N[C@H](C(=O)N[C@@H](CC(N)=O)C(=O)N[C@@H](CCC(=O)O)C(=O)N[C@@H](CCC(N)=O)C(=O)N[C@H](C(=O)N[C@@H](CC(C)C)C(=O)N[C@@H](C)C(=O)N[C@@H](CCC(N)=O)C(=O)N[C@H](C(N)=O)C(C)C)[C@@H](C)CC)[C@@H](C)O)[C@@H](C)CC)[C@@H](C)CC)C(C)C)C(C)C [SEQ ID No. 56, reference compound] (Ac-IVLSLD[dV]PIKLK([γGlu-C16 diacid])KILLEQEKQKKQREQAETNEQILAQV-NH2)
Systolic blood pressure (Mean) % change from baseline, 8 h [1]: −24%
Systolic blood pressure (Mean) % change from baseline, 12 h [1]: −11%
Systolic blood pressure (Mean) % change from baseline, 24 h [1]: 2%
Duration of action [1]: 18 h
Emax (% I) ([2]; listed as 10): 26 % I

CC[C@H](C)[C@H](NC)C(=O)N[C@H](C(=O)N[C@@H](CC(C)C)C(=O)N[C@@H](CO)C(=O)N[C@@H](CC(C)C)C(=O)N[C@@H](CC(=O)O)C(=O)N[C@@H](C(=O)N1CCC[C@H]1C(=O)N[C@H](C(=O)NCC(=O)N[C@@H](CC(C)C)C(=O)N[C@@H](CCCCNC(=O)CC[C@H](NC(=O)CCCCCCCCCCCCCCCCCCC(=O)O)C(=O)O)C(=O)N[C@@H](CCCCN)C(=O)N[C@H](C(=O)N[C@@H](CC(C)C)C(=O)N[C@@H](CC(C)C)C(=O)N[C@@H](CCC(=O)O)C(=O)N[C@@H](CCC(N)=O)C(=O)N[C@@H](CCC(=O)O)C(=O)N[C@@H](CCCCN)C(=O)N[C@@H](CCC(N)=O)C(=O)N[C@@H](CCCCN)C(=O)N[C@@H](CCCCN)C(=O)N[C@@H](CCC(N)=O)C(=O)N[C@@H](CCCNC(=N)N)C(=O)N[C@@H](CCC(=O)O)C(=O)N[C@@H](CCC(N)=O)C(=O)N[C@@H](C)C(=O)N[C@@H](CCC(=O)O)C(=O)N[C@H](C(=O)N[C@@H](CC(N)=O)C(=O)NC(C)(C)C(=O)N[C@@H](CCC(N)=O)C(=O)N[C@H](C(=O)N[C@@H](CC(C)C)C(=O)N[C@@H](C)C(=O)N[C@@H](CCC(N)=O)C(=O)N[C@H](C(N)=O)C(C)C)[C@@H](C)CC)[C@@H](C)O)[C@@H](C)CC)[C@@H](C)CC)C(C)C)C(C)C [compound 229] (H-[NMeI]VLSLD[dV]PIGLK([γGlu-C20 diacid])KILLEQEKQKKQREQAETN[Aib]QILAQV-NH2)
EC50 [3]: 0.11 nM
Systolic blood pressure (Mean) % change from baseline, 8 h [1]: −12%
Systolic blood pressure (Mean) % change from baseline, 12 h [1]: −9%
Systolic blood pressure (Mean) % change from baseline, 24 h [1]: −5%
Duration of action [1]: >24 h
Emax (% I) [2]: 43 % I

CC[C@H](C)[C@H](NC(C)=O)C(=O)N[C@H](C(=O)N[C@@H](CC(C)C)C(=O)N[C@@H](CO)C(=O)N[C@@H](CC(C)C)C(=O)N[C@@H](CC(=O)O)C(=O)N[C@@H](C(=O)N1CCC[C@H]1C(=O)N[C@H](C(=O)N[C@@H](CCCCN)C(=O)N[C@@H](CC(C)C)C(=O)N[C@@H](CCCCNC(=O)CC[C@H](NC(=O)CCCCCCCCCCCCCCCCCCC(=O)O)C(=O)O)C(=O)N[C@@H](CCCCN)C(=O)N[C@H](C(=O)N[C@@H](CC(C)C)C(=O)N[C@@H](CC(C)C)C(=O)N[C@@H](CCC(=O)O)C(=O)N[C@@H](CCC(N)=O)C(=O)N[C@@H](CCC(=O)O)C(=O)N[C@@H](CCCCN)C(=O)N[C@@H](CCC(N)=O)C(=O)N[C@@H](CCCCN)C(=O)NC(C)(C)C(=O)N[C@@H](CCC(N)=O)C(=O)N[C@@H](CCCNC(=N)N)C(=O)N[C@@H](CCC(=O)O)C(=O)N[C@@H](CCC(N)=O)C(=O)N[C@@H](C)C(=O)N[C@@H](CCC(=O)O)C(=O)N[C@H](C(=O)N[C@@H](CC(N)=O)C(=O)NC(C)(C)C(=O)N[C@@H](CCC(N)=O)C(=O)N[C@H](C(=O)N[C@@H](CC(C)C)C(=O)N[C@@H](C)C(=O)N[C@@H](CCC(N)=O)C(=O)N[C@H](C(N)=O)C(C)C)[C@@H](C)CC)[C@@H](C)O)[C@@H](C)CC)[C@@H](C)CC)C(C)C)C(C)C [compound 209] (Ac-IVLSLD[dV]PIKLK([γGlu-C20 diacid])KILLEQEKQK[Aib]QREQAETN[Aib]QILAQV-NH2)
EC50 [3]: 0.22 nM
Systolic blood pressure (Mean) % change from baseline, 8 h [1]: −18%
Systolic blood pressure (Mean) % change from baseline, 12 h [1]: −11%
Systolic blood pressure (Mean) % change from baseline, 24 h [1]: 3%
Duration of action [1]: 23 h
Emax (% I) [2]: 21 % I
EC50 [2]: > 250 nM

CCCCC(=O)N[C@H](C(=O)N[C@@H](CC(C)C)C(=O)N[C@@H](CO)C(=O)N[C@@H](CC(C)C)C(=O)N[C@@H](CC(=O)O)C(=O)N[C@@H](C(=O)N1CCC[C@H]1C(=O)N[C@H](C(=O)N[C@@H](CCCCN)C(=O)N[C@@H](CC(C)C)C(=O)N[C@@H](CCCCNC(=O)CC[C@H](NC(=O)CCCCCCCCCCCCCCCCC(=O)O)C(=O)O)C(=O)N[C@@H](CCCCN)C(=O)N[C@H](C(=O)N[C@@H](CC(C)C)C(=O)N[C@@H](CC(C)C)C(=O)N[C@@H](CCC(=O)O)C(=O)N[C@@H](CCC(N)=O)C(=O)N[C@@H](CCC(=O)O)C(=O)N[C@@H](CCCCN)C(=O)N[C@@H](CCC(N)=O)C(=O)N[C@@H](CCCCN)C(=O)NC(C)(C)C(=O)N[C@@H](CCC(N)=O)C(=O)N[C@@H](CCCNC(=N)N)C(=O)N[C@@H](CCC(=O)O)C(=O)N[C@@H](CCC(N)=O)C(=O)N[C@@H](C)C(=O)N[C@@H](CCC(=O)O)C(=O)N[C@H](C(=O)N[C@@H](CC(N)=O)C(=O)NC(C)(C)C(=O)N[C@@H](CCC(N)=O)C(=O)N[C@H](C(=O)N[C@@H](CC(C)C)C(=O)N[C@@H](C)C(=O)N[C@@H](CCC(N)=O)C(=O)N[C@H](C(N)=O)C(C)C)[C@@H](C)CC)[C@@H](C)O)[C@@H](C)CC)[C@@H](C)CC)C(C)C)C(C)C [compound 194] (Pentanoyl-VLSLD[dV]PIKLK([γGlu-C18 diacid])KILLEQEKQK[Aib]QREQAETN[Aib]QILAQV-NH2)
EC50 [3]: 0.44 nM
Systolic blood pressure (Mean) % change from baseline, 8 h [1]: −13%
Systolic blood pressure (Mean) % change from baseline, 12 h [1]: −3%
Systolic blood pressure (Mean) % change from baseline, 24 h [1]: 18%
Duration of action [1]: 19 h
Emax (% I) [2]: 10 % I
EC50 [2]: > 250 nM
